“And” between values parts separate entries of the source, which are not always exact repeats. Identical values can stand only once.
How the values were obtained:
[1] = target: A1AR; conditions: source not given; cited from earlier work
[2] = test system: Nluc-tagged hA3AR-BRIL-S97R; experiment: NanoBRET washout (irreversible binding) assay vs XAC-630
[3] = test system: A3AR H95^3.37 alanine mutation; conditions: cited from earlier work

SMILES | pKi [1] | NanoBRET washout assay, normalised signal (Figure S2G), individual replicates ([2]; 4 x Wash) | NanoBRET washout assay, normalised signal (Figure S2G), individual replicates ([2]; Control (no wash)) | decrease in binding [3] [fold]
CCCn1c(=O)c2[nH]c(C3CCCCC3)nc2n(CCCNC(=O)c2ccc(S(=O)(=O)F)cc2)c1=O [DU172] | 7.4 | – | – | –
O=C(Cc1ccccc1)Nc1nc2ccc(Cl)cc2c2nc(-c3ccco3)nn12 [MRS1220, 9-Chloro-2-(2-furanyl)-5-((phenylacetyl)amino)-[1,2,4]triazolo[1,5-c]quinazoline] | – | 60.7809 and 60.2862 and 64.3691 | 11.5596 and 12.4414 and 6.2814 and 13.7989 | –
CNC(=O)[C@H]1O[C@@H](n2cnc3c(NCc4cccc(I)c4)nc(Cl)nc32)[C@H](O)[C@@H]1O [Namodenoson] | – | – | – | 30
CC[C@@H]1CN2C(=O)N(C)c3nc(-c4ccccc4)[nH]c3C2=N1 [PSB11] | – | 116.307 and 107.384 and 90.4226 and 99.5492 | 1.581 and 3.183e-15 and -2.281 and -2.887e-15 | –

Source: paper PMC12361428 (Nature Communications, 2025)
